Test results as given in PubChem BioAssay (NCI).
Where “and” joins values, the source holds several entries; their conditions need not be identical. Equal entries are not always repeated.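 Exposure lasted 48 hours, with cells grown in 96-well plates and compounds tested at five concentrations. GI50: concentration for 50% inhibition of growth. TGI: total growth inhibition.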

Legend:
Experiment in all cases: NCI tumour cell line growth inhibition, 48 h
[1] = tested on: UACC-257 melanoma
[2] = tested on: MALME-3M melanoma
[3] = tested on: OVCAR-3 ovarian
[4] = tested on: BT-549 breast
[5] = tested on: OVCAR-5 ovarian
[6] = tested on: NCI-H460 lung
[7] = tested on: T-47D breast
[8] = tested on: SF-539 CNS
[9] = tested on: CAKI-1 renal
[10] = tested on: SK-MEL-5 melanoma
[11] = tested on: CCRF-CEM leukemia
[12] = tested on: COLO 205 colon
[13] = tested on: SF-295 CNS
[14] = tested on: LOX IMVI melanoma
[15] = tested on: 786-0 renal
[16] = tested on: MDA-MB-435
[17] = tested on: UACC-62 melanoma
[18] = tested on: UO-31 renal
[19] = tested on: SK-MEL-2 melanoma
[20] = tested on: K-562 leukemia
[21] = tested on: KM12 colon
[22] = tested on: NCI-H23 lung
[23] = tested on: MCF7 breast
[24] = tested on: RPMI-8226 leukemia
[25] = tested on: TK-10 renal
[26] = tested on: A498 renal
[27] = tested on: HOP-92 NSCLC
[28] = tested on: MOLT-4 leukemia

With `CO/N=C/C=C\C(=O)N/C=C/C[C@H]1/C=C/[C@H](O)/C=C\C=C\c2cccc(O)c2C(=O)O1` the GI50 [1] was 24.8 nM and 49.3 nM, the TGI [1] was 659 nM and 4170 nM and the GI50 [2] was 114 nM and 89.9 nM. The TGI [2] was 5880 nM and 10600 nM, the GI50 [3] was 457 nM and 653 nM and the TGI [3] was 23800 nM and 27300 nM. The GI50 [4] was < 19.7 nM and 24.7 nM, the TGI [4] was 5960 nM and 32900 nM and the GI50 [5] was < 11 nM and 32.6 nM. The TGI [5] was 14400 nM and > 54400 nM, the GI50 [6] was 36.4 nM and 58.3 nM and the TGI [6] was 11100 nM and 5340 nM. For the same compound, the GI50 [7] was < 10 nM and 27.3 nM, the TGI [7] was 64700 nM and > 71700 nM and the GI50 [8] was 46 nM and 51.4 nM. The TGI [8] was 4200 nM and 1830 nM, the GI50 [9] was less than 10 nM and the GI50 [10] was less than 10 nM. The TGI [10] was < 11.3 nM and 20.4 nM, the GI50 [11] was 62.1 nM and 62.2 nM and the TGI [11] was greater than 77000 nM. For the same compound, the GI50 [12] was 26.6 nM and 32.6 nM, the TGI [12] was 16000 nM and 14100 nM and the GI50 [13] was 22.9 nM and 19.8 nM. For the same compound, the TGI [13] was 117 nM and 84.5 nM, the GI50 [14] was less than 10 nM and the TGI [14] was 16 nM. The GI50 [15] was 54 nM and 125 nM, the TGI [15] was 15600 nM and 4030 nM and the GI50 [16] was 36.8 nM and 37 nM. For the same compound, the TGI [16] was 1960 nM and 482 nM, the GI50 [17] was < 14.8 nM and 22 nM and the TGI [17] was 79.5 nM and 60.5 nM. The GI50 [18] was 61 nM and 92.5 nM, the TGI [18] was 455 nM and 1230 nM and the GI50 [19] was 118 nM and 138 nM. The TGI [19] was 1060 nM and 1760 nM, the GI50 [20] was 27.5 nM and 35.8 nM and the TGI [20] was greater than 100000 nM. The GI50 [21] was 40.7 nM and 52 nM, the TGI [21] was 17200 nM and 15100 nM and the GI50 [22] was 2650 nM and 463 nM. For the same compound, the TGI [22] was > 100000 nM and 36100 nM, the GI50 [23] was 99.7 nM and 58.1 nM and the TGI [23] was > 100000 nM and 26700 nM. The GI50 [24] was 26.5 nM and 30.9 nM, the TGI [24] was 6800 nM and 2210 nM and the TGI [25] was 45100 nM and > 100000 nM. For the same compound, the GI50 [26] was 722 nM, the TGI [26] was 5420 nM and the GI50 [27] was < 10 nM and 19 nM. The TGI [27] was 74.5 nM and 492 nM, the GI50 [28] was 43.9 nM and 79 nM and the TGI [28] was 14000 nM and 23500 nM.
